{
  "source": "patent US6486305B1",
  "about": "“METHOD OF MODULATING THE EFFICIENCY OF TRANSLATION TERMINATION AND DEGRADATION OF ABERRANT MRNA INVOLVING A SURVEILLANCE COMPLEX COMPRISING HUMAN UPF1P, EUCARYOTIC RELEASE FACTOR 1 AND EUCARYOTIC RELEASE FACTOR 3” (priority 1998, dated 2002)",
  "molecules": {"B1": {"name": "Upf1K436A: purified K436A form of the Upf1p, mutation of the conserved lysine residue in position 436 (protein, UniProt P30771 1-971, looked up, variant K436A)", "ATP-dependent helicase NAM7": "MVGSGSHTPYDISNSPSDVNVQPATQLNSTLVEDDDVDNQLFEEAQVTETGFRSPSASDNSCAYCGIDSAKCVIKCNSCKKWFCNTKNGTSSSHIVNHLVLSHHNVVSLHPDSDLGDTVLECYNCGRKNVFLLGFVSAKSEAVVVLLCRIPCAQTKNANWDTDQWQPLIEDRQLLSWVAEQPTEEEKLKARLITPSQISKLEAKWRSNKDATINDIDAPEEQEAIPPLLLRYQDAYEYQRSYGPLIKLEADYDKQLKESQALEHISVSWSLALNNRHLASFTLSTFESNELKVAIGDEMILWYSGMQHPDWEGRGYIVRLPNSFQDTFTLELKPSKTPPPTHLTTGFTAEFIWKGTSYDRMQDALKKFAIDKKSISGYLYYKILGHQVVDISFDVPLPKEFSIPNFAQLNSSQSNAVSHVLQRPLSLIQGPPGTGATVTSATIVYHLSKIHKDRILVCAPSNVAVDHLAAKLRDLGLKVVRLTAKSREDVESSVSNLALHNLVGRGAKGELKNLLKLKDEVGELSASDTKRFVKLVRKTEAEILNKADVVCCTCVGAGDKRLDTKFRTVLIDESTQASEPECLIPIVKGAKQVILVGDHQQLGPVILERKAADAGLKQSLFERLISLGHVPIRLEVQYRMNPYLSEFPSNMFYEGSLQNGVTIEQRTVPNSKFPWPIRGIPMMFWANYGREEISANGTSFLNRIEAMNCERIITKLFRDGVKPEQIGVITPYEGQRAYILQYMQMNGSLDKDLYIKVEVASVDAFQGREKDYIILSCVRANEQQAIGFLRDPRRLNVGLTRAKYGLVILGNPRSLARNTLWNHLLIHFREKGCLVEGTLDNLQLCTVQLVRPQPRKTERPMNAQFNVESEMGDFPKFQDFDAQSMVSFSGQIGDFGNAFVDNTELSSYINNEYWNFENFKSAFSQKQNRNEIDDRNLYQEEASHLNSNFARELQREEQKHELSKDFSNLGI"}},
  "key": {"Upf1p-eRF3 interaction [1]": {"target": "T1, Upf1p-eRF3 interaction (Saccharomyces cerevisiae, UniProt P30771)", "T1 construct": "FLAG (N); made in house; host or cells: GST-eRF3: E. coli BL21(DE3) pLysS with pGEX2T-SUP35", "T1 sequence (P30771 1-971)": "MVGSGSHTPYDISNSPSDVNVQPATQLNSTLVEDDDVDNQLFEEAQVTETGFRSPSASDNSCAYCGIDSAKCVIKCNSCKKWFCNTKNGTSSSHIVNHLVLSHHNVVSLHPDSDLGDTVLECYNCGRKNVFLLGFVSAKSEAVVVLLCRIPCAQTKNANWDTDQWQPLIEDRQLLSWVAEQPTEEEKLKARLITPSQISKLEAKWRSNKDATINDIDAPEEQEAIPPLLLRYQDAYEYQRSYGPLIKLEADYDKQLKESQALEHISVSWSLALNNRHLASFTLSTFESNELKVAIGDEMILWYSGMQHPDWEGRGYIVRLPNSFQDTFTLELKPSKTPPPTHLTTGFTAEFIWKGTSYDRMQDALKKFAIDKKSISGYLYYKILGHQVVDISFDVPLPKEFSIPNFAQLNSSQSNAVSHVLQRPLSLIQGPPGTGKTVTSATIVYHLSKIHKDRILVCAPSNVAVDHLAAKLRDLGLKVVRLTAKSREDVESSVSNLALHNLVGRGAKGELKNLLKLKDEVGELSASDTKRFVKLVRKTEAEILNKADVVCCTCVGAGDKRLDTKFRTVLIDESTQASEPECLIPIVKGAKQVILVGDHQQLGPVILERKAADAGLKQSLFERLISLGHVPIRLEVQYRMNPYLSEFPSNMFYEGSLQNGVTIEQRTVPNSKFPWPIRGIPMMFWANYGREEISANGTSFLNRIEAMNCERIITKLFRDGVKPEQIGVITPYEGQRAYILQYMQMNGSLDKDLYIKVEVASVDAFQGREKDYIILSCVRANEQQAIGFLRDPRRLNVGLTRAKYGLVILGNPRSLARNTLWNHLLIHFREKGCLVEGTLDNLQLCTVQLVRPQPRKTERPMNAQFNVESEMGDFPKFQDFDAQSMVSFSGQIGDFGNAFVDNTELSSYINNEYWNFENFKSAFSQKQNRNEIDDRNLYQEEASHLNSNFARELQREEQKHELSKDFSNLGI", "assay": "GST-eRF3 pull-down of purified FLAG-Upf1p with immunoblotting", "assay_type": "binding, yeast", "conditions": "1 mM ATP, 1 mM GTP, or 100 μg/ml poly(U) RNA", "protocol": "(§1) FIGS. 1A-1B. The yeast Upf1 protein interacts specifically with the peptidyl release factors. (1A) GST-eRF1 or GST-eRF3 […] proteins bind specifically to Upf1p in a yeast extract. Cytoplasmic extracts from a yeast strain BJ3505 transformed with either pG-1 (vector) or pG-1FLAGUPF1 (Flag-Upf1p) were prepared in IBTB and incubated with 30 μl GST, GST-eRF1 or GST-eRF3 sepharose-protein complexes. The sepharose-protein complexes were washed 2 times in IBTB (see materials and methods), resuspended in SDS-PAGE loading buffer, separated on an 8% SDS-PAGE gel and immunoblotted using anti-FLAG antibody. (1B) Upf1p interacts directly with both eRF1 and eRF3. Upf1p was purified as described previously (Czaplinski et al. 1995). 200 ng of Upf1p was added to 10 μl of GST, GST-eRF1 or GST-eRF3 sepharose-protein complexes in a total reaction volume of 200 μl in IBTB supplemented with KCl to the final concentration indicated above each lane. After 1 hour at 4° C. sepharose-protein complexes were washed for 3 minutes with 1 ml of IBTB supplemented with KCl to the final concentration indicated above each lane. The purified sepharose-protein complexes were resuspended in SDS-PAGE loading buffer and separated on a 7.5% SDS-PAGE gel and immunoblotted as in (A).\n(§2) FIGS. 3A-3B. eRF3 and RNA compete for binding to Upf1p. (3A) Poly(U) RNA prevents Upf1p from binding to eRF3. Reaction mixtures were prepared as described in FIG. 1B, except that binding was performed in TBSTB (TBST with 100 μg/ml BSA) and reaction mixtures contained 1 mM ATP, 1 mM GTP, or 100 μg/ml poly(U) RNA as indicated above each lane. The reaction mixtures were mixed for 1 hour at 4° C. Following mixing, the complexes were washed as in FIG. 1B with TBSTB containing 1 mM ATP, 1 mM GTP, or 100 μg/ml poly(U) RNA as indicated above each lane. […]\n(§3) Further, purified Flag-Upf1p with poly(U) RNA was incubated in the presence or absence of ATP. Following incubation, GST-eRF3 was added to the reaction mixtures and the Upf1-eRF3 interaction was monitored by immunoblotting analysis as before."}, "[2]": {"system": "isogenic wild-type and upf3Δ strains", "assay": "Paromomycin sensitivity, zone of growth inhibition around a disc on a lawn of cells", "assay_type": "cell-based, Saccharomyces cerevisiae", "protocol": "FIG. 11. Paromomycin sensitivity was monitored in isogenic wild-type and upf3Δ strains by placing a disc containing 1 mg of paromomycin onto a lawn of cells and determining the zone of growth inhibition around the disc.\nParomomycin sensitivity was monitored in isogenic wild-type and upf3Δ strains by placing a disc containing 1 mg of paromomycin onto a lawn of cells and determining the zone of growth inhibition around the disc (FIG. 11)."}, "[3]": {"system": "−1 ribosomal frameshifting", "assay": "β-galactosidase assay of −1 ribosomal frameshifting in the presence of paromomycin", "assay_type": "cell-based, Saccharomyces cerevisiae", "protocol": "Cloning of UPF3: The strategy used to clone the UPF3 gene was the same that was used to clone UPF2 (Cui, Y, K. W. Hagan, S. Zhang, and Peltz, S. W. (1995)). […] Killer assays, frameshifting assays and extraction and analysis of total nucleic acids: The killer assay was carried out as previously described (Dinman, J. D., and Wickner, R. B. (1992)) by replica plating colonies onto 4.7 MB plates newly seeded with a lawn of 5×47 killer indicator cells (0.5 ml of a suspension at 1 unit of optical density at 550 nm per ml per plate). After 2 days at 20° C., killer activity was observed as a zone of growth inhibition around the killer colonies. To quantitate loss of killer activity, colonies that had been identified as killer^+ were re-streaked for single colonies and the percentage of killer^+ colonies were determined. The efficiencies of −1 frameshifting were determined as previously described (Cui, Y. Dinman, J. D., and Peltz, S. W. (1996); Dinman, J. D., Ruiz-Echevarria, M. J., Czaplinski, K. and Peltz, S. W. (1 997b)) using the 0-frame control (pTI25) and −1 reporter (pF8) plasmids. […]\nThe effect of paromomycin on −1 ribosomal frameshifting was analyzed further by β-galactosidase assay using plasmids pF8 (−1 frameshift reporter construct) or pTI25 (zero frame control) in isogenic wild-type and upf3Δ strains. […]"}, "Upf1p-eRF3 interaction [4]": {"target": "T2, Upf1p-eRF3 interaction (Saccharomyces cerevisiae, UniProt P30771, K436A)", "T2 construct": "FLAG (N); made in house; host or cells: GST-eRF3: E. coli BL21(DE3) pLysS with pGEX2T-SUP35", "assay": "GST-eRF3 pull-down of purified FLAG-Upf1p with immunoblotting", "assay_type": "binding, yeast", "conditions": "GST-eRF3", "protocol": "as §1, §2, §3"}, "Upf1p-eRF1 interaction": {"target": "T3, Upf1p-eRF1 interaction (Saccharomyces cerevisiae, UniProt P30771, K436A)", "T3 construct": "FLAG (N); made in house; host or cells: GST-eRF1: E. coli BL21(DE3) pLysS with pGEX2T-SUP45", "assay": "GST-eRF1 pull-down of purified FLAG-Upf1p with immunoblotting", "assay_type": "binding, yeast", "conditions": "GST-eRF1, various KCl concentrations", "protocol": "as §1, with “After 1 hour at 4° C. sepharose-protein complexes were washed for 3 minutes with 1 ml of IBTB supplemented with KCl to the final concentration indicated above each lane. The purified sepharose-protein complexes were resuspended in SDS-PAGE loading buffer and separated on a 7.5% SDS-PAGE gel and immunoblotted as in (A).” left out\nPrevious results have shown that strains harboring mutations in the conserved lysine residue in position 436 of the Upf1p (K436) result in stabilization of nonsense-containing mRNAs and a nonsense suppression phenotype (Weng et al., 1996a). […] Reaction mixtures containing the K436A form of Upf1p, GST-eRF1 and various KCl concentrations were prepared,and their interaction was monitored as described above."}},
  "note": "“Also recorded” adds a separate entry of the source.",
  "data": [
    {"molecule": "Nc1ncnc2c1ncn2[C@@H]1O[C@H](COP(=O)(O)OP(=O)(O)OP(=O)(O)O)[C@@H](O)[C@H]1O", "note": "[ATP]", "values": [
      {"measurement": "Effect on interaction between Upf1p and eRF3", "setting": "Upf1p-eRF3 interaction [1]", "result": "did not affect the interaction; also recorded: did not prevent association of Upf1p with eRF3"}
    ]},
    {"molecule": "Nc1nc2c(ncn2[C@@H]2O[C@H](COP(=O)(O)OP(=O)(O)OP(=O)(O)O)[C@@H](O)[C@H]2O)c(=O)[nH]1", "note": "[GTP]", "values": [
      {"measurement": "Effect on interaction between Upf1p and eRF3", "setting": "Upf1p-eRF3 interaction [1]", "result": "not affected"}
    ]},
    {"molecule": "NC[C@@H]1O[C@H](O[C@H]2[C@@H](O)[C@H](O[C@@H]3[C@@H](O)[C@H](N)C[C@H](N)[C@H]3O[C@H]3O[C@H](CO)[C@@H](O)[C@H](O)[C@H]3N)O[C@@H]2CO)[C@H](N)[C@@H](O)[C@@H]1O", "note": "[paromomycin]", "values": [
      {"measurement": "Paromomycin sensitivity (hypersensitivity)", "setting": "[2]; upf1Δ or upf2Δ strains", "result": "Neither the upf1Δ or upf2Δ strains demonstrate hypersensitivity"},
      {"measurement": "Paromomycin sensitivity (zone of growth inhibition)", "setting": "[2]; upf3Δ strain vs isogenic wild-type, disc containing 1 mg of paromomycin", "result": "more sensitive to paromomycin than the isogenic wild-type strain"},
      {"measurement": "β-galactosidase activity (−1 frameshift reporter)", "setting": "[3]; upf3Δ cells carrying pF8, liquid media, different concentrations of the drug", "result": "increased continuously with increased concentrations of paromomycin"},
      {"measurement": "β-galactosidase activity", "setting": "[3]; wild-type cells containing pF8, or any strain carrying pTI25 (zero frame control)", "result": "unaffected"}
    ]},
    {"molecule": "B1", "values": [
      {"measurement": "Interaction with eRF3 relative to wild-type Upf1p", "setting": "Upf1p-eRF3 interaction [4]", "result": "equivalent affinity as the wild-type Upf1p"},
      {"measurement": "Reduction of interaction with eRF1 relative to wild-type Upf1", "setting": "Upf1p-eRF1 interaction", "result": "4 to 6", "unit": "fold"}
    ]}
  ]
}
